Drawing on patent US20070244103A1, “Novel Compounds Having an Anti-Bacterial Activity” (Morphochem Aktiengesellschaft Fur Kombinatorische Chemie, priority 2004, published 2007), this text covers MIC for eleven molecules.

SMILES strings stand for the structures.

The experiment is described as follows: MIC of the examples against various organisms. Format: cell-based. The following applies: against at least two of the above organisms (12-strain panel). As for the experimental part:
The MIC (μg/ml) of the examples against various organisms was determined: A. baumannii ATCC19606, E. cloacae ATCC23355, E. coli ATCC25922, K. pneumoniae ATCC27736, P. mirabilis ATCC29906, P. aeruginosa ATCC27853, S. maltophilia ATCC13637, S. aureus ATCC43300, S. epidermidis ATCC14990, S. haemolyticus ATCC29970, E. faecalis ATCC29212 and E. faecium ATC19434.
Regarding `COc1ccc2ncc(Cl)c(C(O)CN3CCCC(CNCc4ccc5c(c4)NC(=O)CS5)C3)c2c1` (single isomer, unassigned) [Example 68, 6-[({1-[2-(3-Chloro-6-methoxy-quinolin-4-yl)-2-hydroxy-ethyl]-piperidin-3-ylmethyl}-amino)-methyl]-4H-benzo[1,4]thiazin-3-one], the MIC (in general, the smallest concentration in the dilution series that meets the test's criterion for growth inhibition) was not above 2 µg/mL.

With `COc1cnc2ccc(Cl)c(C(O)CN3CCCC(CNCc4ccc5c(c4)NC(=O)CS5)C3)c2n1` (centres unmarked) [Example 96, 6-[({1-[2-(6-Chloro-3-methoxy-quinoxalin-5-yl)-2-hydroxy-ethyl]-piperidin-3-ylmethyl}-amino)-methyl]-4H-benzo[1,4]thiazin-3-one], the MIC was not above 2 µg/mL. The result for `COc1cnc2cccc(C(O)CN3CCCC(CNCc4ccc5c(c4)OCCO5)C3)c2n1` (centres unmarked) [Example 92, 2-(3-{[(2,3-Dihydro-benzo[1,4]dioxin-6-ylmethyl)-amino]-methyl}-piperidin-1-yl)-1-(3-methoxy-quinoxalin-5-yl)-ethanol] reads not above 2 µg/mL; that for `COc1ccc2ncc(Cl)c(C(O)CN3C4CCC3CC(NCc3cc5c(cc3F)SCC(=O)N5)C4)c2c1` (single isomer, unassigned) [Example 60, 6-({8-[2-(3-Chloro-6-methoxy-quinolin-4-yl)-2-hydroxy-ethyl]-8-aza-bicyclo[3.2.1]oct-3-ylamino}-methyl)-7-fluoro-4H-benzo[1,4]thiazin-3-one], not above 2 µg/mL; that for `COc1cnc2cccc(NC(=O)C3CCCC(CNCc4ccc5c(n4)NC(=O)CS5)C3)c2n1` (centres unmarked) [Example 105, 3-{[(3-Oxo-3,4-dihydro-2H-pyrido[3,2-b][1,4]thiazin-6-ylmethyl)-amino]-methyl}-cyclohexanecarboxylic acid (3-methoxy-quinoxalin-5-yl)-amide], not above 2 µg/mL. The result for `COc1cnc2cccc(C(O)CN3C4CCC3CC(NCc3ccc5nsnc5c3)C4)c2n1` (centres unmarked) [Example 82, 2-{3-[(Benzo[1,2,5]thiadiazol-5-ylmethyl)-amino]-8-aza-bicyclo[3.2.1]oct-8-yl}-1-(3-methoxy-quinoxalin-5-yl)-ethanol] reads not above 2 µg/mL. As for `COc1ccc2ncc(Cl)c(C(O)CN3C4CCC3CC(NCc3ccc5c(c3)NC(=O)CO5)C4)c2n1` (centres unmarked) [Example 27, 6-({8-[2-(3-Chloro-6-methoxy-[1,5]-naphthyridin-4-yl)-2-hydroxy-ethyl]-8-aza-bicyclo[3.2.1]oct-3-ylamino}-methyl)-4H-benzo[1,4]oxazin-3-one], the MIC was not above 2 µg/mL. The result for `COc1ccc2nccc(C(O)CN3C4CCC3CC(NCc3ccc5c(c3)OCO5)C4)c2n1` (single isomer, unassigned) [Example 9, 2-{3-[(Benzo[1,3]dioxol-5-ylmethyl)-amino]-8-aza-bicyclo[3.2.1]oct-8-yl}-1-(6-methoxy-[1,5]-naphthyridin-4-yl)-ethanol] reads not above 2 µg/mL. Next, `COc1ccc2ncc(Cl)c(C(O)CN3CCCC(CNCc4cc5c(cc4F)SCC(=O)N5)C3)c2c1` (single isomer, unassigned) [Example 67, 6-[({1-[2-(3-Chloro-6-methoxy-quinolin-4-yl)-2-hydroxy-ethyl]-piperidin-3-ylmethyl}-amino)-methyl]-7-fluoro-4H-benzo[1,4]thiazin-3-one]: not above 2 µg/mL. The result for `COc1ccc2cccc(NC(=O)C3CCCC(CNCc4ccc5c(c4)OCCO5)C3)c2n1` (centres unmarked) [Example 110, 3-{[(2,3-Dihydro-benzo[1,4]dioxin-6-ylmethyl)-amino]-methyl}-cyclohexanecarboxylic acid (2-methoxy-quinolin-8-yl)-amide] reads not above 2 µg/mL.

`COc1ccc2ncc(Cl)c(C(O)CN3C4CCC3CC(NCc3ccc5c(c3)OCCO5)C4)c2n1` (centres unmarked) [Example 25, 1-(3-Chloro-6-methoxy-[1,5]-naphthyridin-4-yl)-2-{3-[(2,3-dihydro-benzo[1,4]dioxin-6-ylmethyl)-amino]-8-aza-bicyclo[3.2.1]oct-8-yl}-ethanol]: the MIC was not above 2 µg/mL.
